The test system of the first assay is SARS-CoV-2 strain USA-WA1/2020. The assay is described as follows: microbe, parasite or virus in culture. It is filed as cell-based. The following applies: Severe acute respiratory syndrome coronavirus 2, HeLa-ACE2, 24 h, HeLa-ACE2 cells, SARS-CoV-2 infection, 24 h; bound printed in cell; read-out: EC50, uM (Hela).
A word on the EC50: it is the midpoint of the concentration-response curve. For `O=C(NC1CS(=O)(=O)C1)C(=O)N[C@@H](CC1CC1)C(=O)N[C@@H](C[C@@H]1CCNC1=O)C(=O)COC(F)(F)F` [Compound 234, N1-((S)-3-cyclopropyl-1-oxo-1-(((S)-3-oxo-1-((S)-2-oxopyrrolidin-3-yl)-4-(trifluoromethoxy)butan-2-yl)amino)propan-2-yl)-N2-(l,1-dioxidothietan-3-yl)oxalamide], the EC50 is more than 1 µM.

The same assay, now with this note: Severe acute respiratory syndrome coronavirus 2, HeLa-ACE2, 24 h, HeLa-ACE2 cells, SARS-CoV-2 infection, 24 h; class symbols; read-out: EC50, uM (Hela).
Turning to `CC(C)C[C@H](NC(=O)C(=O)NC(C)(C)C)C(=O)N[C@@H](C[C@@H]1CCNC1=O)C(=O)COc1c(F)c(F)cc(F)c1F` [Compound 100, N1-(tert-butyl)-N2-((S)-4-methyl-1-oxo-1-(((S)-3-oxo-1-((S)-2-oxopyrrolidin-3-yl)-4-(2,3,5,6-tetrafluorophenoxy)butan-2-yl)amino)pentan-2-yl)oxalamide], the EC50 was 0.05 to 0.2 µM.
Same read-out and setting: with `CC(C)C[C@H](NC(=O)C(=O)NC1CCCC(F)(F)C1)C(=O)N[C@@H](C[C@@H]1CCNC1=O)C(=O)COc1c(F)c(F)cc(F)c1F` (stereo partly drawn) [Compound 94, Nl-(3,3-difluorocyclohexyl)-N2-((S)-4-methyl-1-oxo-1-(((S)-3-oxo-1-((S)-2-oxopyrrolidin-3-yl)-4-(2,3,5,6-tetrafluorophenoxy)butan-2-yl)amino)pentan-2-yl)oxalamide] the figure was 0.05 to 0.2 µM; with `O=C(Nc1ccccc1Cl)C(=O)N[C@@H](CC1CCC(F)(F)CC1)C(=O)N[C@@H](C[C@@H]1CCNC1=O)C(=O)COc1c(F)c(F)cc(F)c1F` [Compound 88, N1-(2-chlorophenyl)-N2-((S)-3-(4,4-difluorocyclohexyl)-1-oxo-1-(((S)-3-oxo-l-((S)-2-oxopyrrolidin-3-yl)-4-(2,3,5,6-tetrafluorophenoxy)butan-2-yl)amino)propan-2-yl)oxalamide], 0.05 to 0.2 µM.
Same read-out and setting: with `CC(C)(C)[C@H](O)C(=O)N1CC2(CC2)C[C@H]1C(=O)N[C@@H](C[C@@H]1CCNC1=O)C(=O)COC(F)(F)F` [Compound 344, (S)-5-((S)-2-hydroxy-3,3-dimethylbutanoyl)-N-((S)-3-oxo-1-((S)-2-oxopyrrolidin-3-yl)-4-(trifluoromethoxy)butan-2-yl)-5-azaspiro[2.4]heptane-6-carboxamide] the figure was less than 0.05 µM.
The same measure, in the same setting: with `O=C(N[C@@H](CC1CCCCC1)C(=O)N[C@@H](C[C@@H]1CCNC1=O)C(=O)COc1c(F)c(F)cc(F)c1F)c1cc2ccccc2[nH]1` [Compound 5, N-((S)-3-cyclohexyl-1-oxo-1-(((S)-3-oxo-l-((S)-2-oxopyrrolidin-3-yl)-4-(2,3,5,6-tetrafluorophenoxy)butan-2-yl)amino)propan-2-yl)-1H-indole-2-carboxamide] the figure was 0.05 to 0.2 µM; with `O=C1NCC[C@H]1C[C@H](NC(=O)[C@@H]1[C@H]2CCC[C@H]2CN1C(=O)C1OCCC1(F)F)C(=O)COC(F)(F)F` (stereo partly drawn) [Compound 323, (1S,3aR,6aS)-2-(3,3-difluorotetrahydrofuran-2-carbonyl)-N-((S)-3-oxo-1-((S)-2-oxopyrrolidin-3-yl)-4-(trifluoromethoxy)butan-2-yl)octahydrocyclo-penta[c]pyrrole-1-carboxamide], 0.05 to 0.2 µM; with `O=C1NCC[C@H]1C[C@H](NC(=O)[C@@H]1CC2(CC2)CN1C(=O)C12CC(C(F)(F)F)(CO1)C2)C(=O)COC(F)(F)F` [Compound 317, (6S)—N-[(2S)-3-oxo-1-[(3S)-2-oxopyrrolidin-3-yl]-4-(trifluoromethoxy)butan-2-yl]-5-[4-(trifluoromethyl)-2-oxabicyclo[2.1.1]hexane-1-carbonyl]-5-azaspiro[2.4]heptane-6-carboxamide], less than 0.05 µM.
With `CC(C)C[C@H](NC(=O)C(=O)Nc1ccccn1)C(=O)N[C@@H](C[C@@H]1CCNC1=O)C(=O)COc1c(F)c(F)cc(F)c1F` [Compound 45, N1-((S)-4-methyl-1-oxo-1-(((S)-3-oxo-1-((S)-2-oxopyrrolidin-3-yl)-4-(2,3,5,6-tetrafluorophenoxy)butan-2-yl)amino)pentan-2-yl)-N2-(pyridin-2-yl)oxalamide], the EC50 lay in the range of 0.05 to 0.2 µM.
Same read-out and setting: with `O=C(N[C@@H](CC1CC1)C(=O)N[C@@H](C[C@@H]1CCNC1=O)C(=O)COC(F)(F)F)c1cc(-c2ccccc2)n[nH]1` [Compound 192, N-((S)-3-cyclopropyl-1-oxo-1-(((S)-3-oxo-1-((S)-2-oxopyrrolidin-3-yl)-4-(trifluoromethoxy)butan-2-yl)amino)propan-2-yl)-3-phenyl-1H-pyrazole-5-carboxamide] the figure was 0.05 to 0.2 µM.
For `O=C(N[C@@H](CC1CC1)C(=O)N[C@@H](C[C@@H]1CCNC1=O)C(=O)COC(F)(F)F)c1cc2cc(F)ccc2[nH]1` [Compound 161, N-((S)-3-cyclopropyl-1-oxo-1-(((S)-3-oxo-1-((S)-2-oxopyrrolidin-3-yl)-4-(trifluoromethoxy)butan-2-yl)amino)propan-2-yl)-5-fluoro-1H-indole-2-carboxamide], the EC50 is less than 0.05 µM.

Staying with this assay, now noted: Severe acute respiratory syndrome coronavirus 2, HeLa-ACE2, 24 h, HeLa-ACE2 cells, SARS-CoV-2 infection, 24 h; given as bound; read-out: EC50, uM (Hela).
Turning to `O=C(NC12CC(F)(C1)C2)C(=O)N[C@]1(C(=O)N[C@@H](C[C@@H]2CCNC2=O)C(=O)COC(F)(F)F)C[C@H]1C1CC1` [Compound 579, N1-(3-fluorobicyclo-[1.1.1]pentan-1-yl)-N2-((1S,2R)-2-(((S)-3-oxo-1-((S)-2-oxopyrrolidin-3-yl)-4-(trifluoromethoxy)butan-2-yl)carbamoyl)-[1,1′-bi(cyclopropan)]-2-yl)oxalamide], the EC50 is more than 1 µM.

Staying with this assay, now noted: Severe acute respiratory syndrome coronavirus 2, HeLa-ACE2, 24 h, HeLa-ACE2 cells, SARS-CoV-2 infection, 24 h; read-out: EC50, uM (Hela).
Take `COc1cccc2cc(C(=O)N[C@@H](CC(C)C)C(=O)N[C@@H](C[C@@H]3CCNC3=O)C(=O)COC(F)(F)F)oc12` [Compound 466, 7-methoxy-N-((S)-4-methyl-1-oxo-1-(((S)-3-oxo-1-((S)-2-oxopyrrolidin-3-yl)-4-(trifluoromethoxy)butan-2-yl)amino)pentan-2-yl)benzofuran-2-carboxamide]: the EC50 is less than 0.05 µM.
Same read-out and setting: next, `CCCCCC(=O)N1CC2(CC2)C[C@H]1C(=O)N[C@@H](C[C@@H]1CCNC1=O)C(=O)COC(F)(F)F` [Compound 708, (S)-5-hexanoyl-N-((S)-3-oxo-1-((S)-2-oxopyrrolidin-3-yl)-4-(trifluoromethoxy)butan-2-yl)-5-azaspiro[2.4]heptane-6-carboxamide]: 0.05 to 0.2 µM; `O=C(NC1CCCCC1)C(=O)N1C[C@@H]2CCC[C@@H]2[C@H]1C(=O)N[C@@H](C[C@@H]1CCNC1=O)C(=O)COC(F)(F)F` [Compound 467, (1S,3aR,6aS)-2-(2-(cyclohexylamino)-2-oxoacetyl)-N-((S)-3-oxo-1-((S)-2-oxopyrrolidin-3-yl)-4-(trifluoromethoxy)butan-2-yl)octahydrocyclo-penta[c]pyrrole-1-carboxamide]: 0.5 to 1 µM; `O=C1NCC[C@H]1C[C@H](NC(=O)[C@@H]1CC2(CC2)CN1C(=O)CC1CC(F)(F)C1)C(=O)COC(F)(F)F` [Compound 701, (S)-5-(2-(3,3-difluorocyclobutyl)acetyl)-N-((S)-3-oxo-1-((S)-2-oxopyrrolidin-3-yl)-4-(trifluoromethoxy)butan-2-yl)-5-azaspiro[2.4]heptane-6-carboxamide]: less than 0.05 µM.
On the same count and under the same terms, with `COc1ccccc1NC(=O)C(=O)N1CC2(CC2)C[C@H]1C(=O)N[C@@H](C[C@@H]1CCNC1=O)C(=O)COC(F)(F)F` [Compound 575, (S)-5-(2-((2-methoxyphenyl)-amino)-2-oxoacetyl)-N-((S)-3-oxo-1-((S)-2-oxopyrrolidin-3-yl)-4-(trifluoromethoxy)butan-2-yl)-5-azaspiro[2.4]-heptane-6-carboxamide] the figure was 0.5 to 1 µM; with `CC(C)(C)NC(=O)C(=O)N1C[C@@H]2C(F)CC[C@@H]2[C@H]1C(=O)N[C@@H](C[C@@H]1CCNC1=O)C(=O)COC(F)(F)F` (stereo partly drawn) [Compound 601, (1S,3aR,6aS)-2-(2-(tert-butylamino)-2-oxoacetyl)-4-fluoro-N-((S)-3-oxo-1-((S)-2-oxopyrrolidin-3-yl)-4-(trifluoromethoxy)butan-2-yl)octahydrocyclo-penta[c]pyrrole-1-carboxamide], 0.05 to 0.2 µM; with `Cc1ccccc1NC(=O)c1cn([C@@H](CC(C)C)C(=O)N[C@@H](C[C@@H]2CCNC2=O)C(=O)COC(F)(F)F)nn1` [Compound 552, 1-((S)-4-methyl-1-oxo-1-(((S)-3-oxo-1-((S)-2-oxopyrrolidin-3-yl)-4-(trifluoromethoxy)butan-2-yl)amino)pentan-2-yl)-N-(o-tolyl)-1H-l,2,3-triazole-4-carboxamide], less than 0.05 µM.
Consider `CNC(=O)C(=O)N1CC2(CC2)C[C@H]1C(=O)N[C@@H](C[C@@H]1CCNC1=O)C(=O)COC(F)(F)F` [Compound 676, (S)-5-(2-(methylamino)-2-oxoacetyl)-N-((S)-3-oxo-1-((S)-2-oxopyrrolidin-3-yl)-4-(trifluoromethoxy)butan-2-yl)-5-azaspiro[2.4]heptane-6-carboxamide], for which the concentration giving a half-maximal response (EC50) is 0.05 to 0.2 µM.
Still for that read-out and setting: next, `CC1(C)[C@@H]2[C@@H](C(=O)N[C@@H](C[C@@H]3CCNC3=O)C(=O)COC(F)(F)F)N(C(=O)[C@H](O)c3ccccc3)C[C@@H]21` [Compound 413, (1R,2S,5S)-3-((R)-2-hydroxy-2-phenylacetyl)-6,6-dimethyl-N-((S)-3-oxo-1-((S)-2-oxopyrrolidin-3-yl)-4-(trifluoromethoxy)butan-2-yl)-3-azabicyclo[3.1.0]-hexane-2-carboxamide]: less than 0.05 µM; `C[C@](O)(C(=O)N1CC2(CC2)C[C@H]1C(=O)N[C@@H](C[C@@H]1CCNC1=O)C(=O)COC(F)(F)F)C(F)(F)F` [Compound 700, (S)-N-((S)-3-oxo-1-((S)-2-oxopyrrolidin-3-yl)-4-(trifluoromethoxy)butan-2-yl)-5-((S)-3,3,3-trifluoro-2-hydroxy-2-methylpropanoyl)-5-azaspiro[2.4]heptane-6-carboxamide]: 0.05 to 0.2 µM.
